Data as given in PubChem BioAssay AID1996.
≈ marks a conversion by molar mass, not a printed value.

Settings: buffer; pH 7.4; 200.0 µM

| SMILES | solubility kinetic [µg/mL] |
| --- | --- |
| Cc1ccc2[nH]c(=O)c3cc(C(=O)NCC4CCCO4)sc3c2c1 (configuration not stated) | 1 (≈ 2.92 µM) |
| Cn1c(-c2cccc([N+](=O)[O-])c2)[n+](C)c2ccccc21.[Cl-] | > 45.6 |
| CCOC(=O)C(=CNc1cscc1S(=O)(=O)C(C)C)C(=O)OCC | 38.9 (≈ 104 µM) |
| Cc1ccc(Sc2ncnc3onc(C)c23)c(C)c1 | 1.9 (≈ 7 µM) |
| Cc1ccc(C(=O)C[n+]2ccccc2)cc1.[I-] | > 50.9 |
| Cc1ccc(CN(C)C(=O)c2cc(S(=O)(=O)N3CCOCC3)ccc2F)o1 | > 59.5 |
| O=C(CNC(=O)c1ccccc1)OCN1C(=O)c2ccccc2C1=O | > 50.7 |
| CCCn1c(=O)c2c(nc3n2CCCN3Cc2ccccc2)n(C)c1=O | 17.6 (≈ 49.8 µM) |
| CC(O)c1nc2ccccc2n1CCCCOc1ccccc1 (configuration not stated) | 43.9 (≈ 141 µM) |
| CNC(=S)Nc1ccc(OC(F)(F)F)cc1 | 35.4 (≈ 141 µM) |
| CSc1ncc(C(=O)Nc2ccc(Cl)cc2)c(C)n1 | 12.7 (≈ 43.2 µM) |
| CCCN(C(=O)/C=C/c1ccc(S(=O)(=O)N(CC)CC)cc1)C1CCS(=O)(=O)C1 (configuration not stated) | > 66.4 |
| CCN(C(=O)CSc1nc2ccccc2[nH]1)C1CCS(=O)(=O)C1 (configuration not stated) | > 53 |
| COc1cc(NC(=O)C2C3CCC(O3)C2C(=O)O)cc(OC)c1 (configuration not stated) | > 48.2 |
| O=[N+]([O-])/C=C1\C=CC=CN1Cc1ccc(Cl)cc1 | 31.7 (≈ 121 µM) |
| CC(=O)Nc1ccc(NC(=O)CSCc2ccccc2Cl)cc1 | 12.7 (≈ 36.4 µM) |
| COc1cc(NC(=O)c2onc(C)c2Cl)cc(OC)c1OC | 28.7 (≈ 87.8 µM) |
| O=C(CSc1ccccn1)NCc1ccc2c(c1)OCO2 | > 45.4 |
| O=C(c1ccc(Br)o1)N1CC=C(c2ccccc2)CC1 | 33 (≈ 99.3 µM) |
| CC1CN(c2nc(N(C)c3ccccc3)nc(N)c2[N+](=O)[O-])CC(C)O1 (configuration not stated) | 28.6 (≈ 79.8 µM) |
| Cl.O=[N+]([O-])c1cc(CN(CCO)CCO)ccc1O | > 43.9 |
| O=C(CCN1C(=O)C2C3C=CC(C3)C2C1=O)N1CCCCC1 (configuration not stated) | > 45.4 |
| Cc1cc(C)c(S(=O)(=O)c2ccc(C(C)(C)C)cc2)c(Cl)n1 | < 0.7 |
| O=Cc1cnc2ccccc2c1-c1ccccc1 | 27.8 (≈ 119 µM) |

| SMILES | solubility kinetic [µg/mL] |
| --- | --- |
| O=C(CCN1CCN(c2ccccc2F)CC1)Nc1ccc(F)cc1 | 10.4 (≈ 30.1 µM) |
| CCCCn1c(=O)[nH]c(=O)c2c1nc(-c1cccc(OC)c1)n2C | 3.1 (≈ 9.44 µM) |
| O=C(NC(=S)N1CCOCC1)c1ccc(F)cc1 | > 40.2 |
| CN1CCN(S(=O)(=O)c2ccc3c(c2)CC(=O)N3C)CC1 | > 46.4 |
| CCN(/C=N/S(=O)(=O)c1ccc(Cl)cc1)CC | > 41.2 |
| CN(C(=O)COC(=O)/C=C/c1cccs1)C1CCCCC1 | 17.7 (≈ 57.6 µM) |
| O=C(NC12CC3CC(CC(C3)C1)C2)N1CCN(C2CCCCC2)CC1 | 42.4 (≈ 123 µM) |
| CCOC(=O)c1cnc(Nc2ccccc2)nc1C(F)(F)F | 2.1 (≈ 6.75 µM) |
| COC(=O)c1sccc1NC(=O)Nc1cc(C)ccc1OC | 11.1 (≈ 34.6 µM) |
| CC1CCCN(CC(O)COc2ccc(-c3ccccc3)cc2)C1 (configuration not stated) | 44.4 (≈ 136 µM) |
| N#CC1(NC(=O)Cn2cc(C(F)(F)F)cc(Cl)c2=O)CCCCC1 | 13.8 (≈ 38.1 µM) |
| N#C/C(=C\c1ccncc1)C(=O)Nc1ccc(C(=O)O)cc1 | > 44 |
| Cc1cc(C)cc(NC(=O)CCOc2ccccc2)c1 | 4.1 (≈ 15.2 µM) |
| O=C(COC(=O)c1cnc(Cl)c(Cl)c1)Nc1cccc(S(=O)(=O)N2CCOCC2)c1 | 38.9 (≈ 82 µM) |
| Cc1ccc(NC(=O)CSc2nc(N)cc(=O)[nH]2)cc1S(=O)(=O)N1CCCCC1 | 46.6 (≈ 107 µM) |
| CCn1cc(C=C2C(=O)N(C)C(=O)N(C)C2=O)c2ccccc21 | 1 (≈ 3.21 µM) |
| Cc1cccc(N2CC(O)(c3cccs3)[N+]3=C2CCCCC3)c1.[Br-] (configuration not stated) | > 61.1 |
| COc1cc(/C=C2\NC(=O)NC2=O)cc(Br)c1OC | 10.5 (≈ 32.1 µM) |
| O=C(O)C(Sc1ccncn1)c1ccccc1 (configuration not stated) | 26.4 (≈ 107 µM) |
| Cc1ccc(S(=O)(=O)N2CCOC2C(Cl)(Cl)Cl)cc1 (configuration not stated) | 2.6 (≈ 7.54 µM) |
| COc1cc(NC(=S)N2CCCCC2C)c(OC)cc1Cl (configuration not stated) | 44.7 (≈ 136 µM) |
| CNC(=O)Nc1ccc2nc(C)oc2c1 | > 30.8 |
| O=C(CN1C(=O)NC2(CCCC2)C1=O)NCCc1ccc(F)cc1 | 44.4 (≈ 133 µM) |
| COc1ccc(/C=N/OC(=O)Nc2ccc(Cl)cc2)c(OC)c1 | 6.2 (≈ 18.5 µM) |

| SMILES | solubility kinetic [µg/mL] |
| --- | --- |
| Cc1cc(NC(=O)c2cc(-c3ccc(Br)cc3)on2)no1 | 3 (≈ 8.62 µM) |
| NC(=O)c1ccsc1NC(=O)COC(=O)c1cnccn1 | > 45.9 |
| O=C(c1ccc([N+](=O)[O-])cc1)c1cc2ccc(O)cc2oc1=O | 2 (≈ 6.43 µM) |
| Cn1c(CO)cnc1S(=O)(=O)Cc1ccc(Cl)cc1 | > 45.1 |
| COc1ccc(C(=O)Nc2ccc3ccccc3c2)cc1 | < 0.6 |
| O=C(NCc1ccc(Cl)cc1)Nc1ccc(F)cc1 | 1.3 (≈ 4.66 µM) |
| Oc1ccc(CN2CCN(c3ncccn3)CC2)cc1 | 34.2 (≈ 127 µM) |
| Cc1sc2ncnc(N[C@@H](Cc3ccccc3)C(=O)O)c2c1C | 46.8 (≈ 143 µM) |
| CC(=O)N1CCN(c2nnc(-c3ccc(C)cc3)c3ccccc23)CC1 | > 52 |
| N#Cc1ccncc1S(=O)c1ccc(Cl)cc1 (configuration not stated) | > 39.4 |
| Nc1cccc(NC(=O)CCC(=O)NCc2ccco2)c1 | > 43.1 |
| O=C(COC(=O)/C=C/c1cccc(F)c1)Nc1ccc(Cl)cn1 | 5 (≈ 14.9 µM) |
| CCN1C(=O)c2cccc3c(Cl)ccc1c23 | 7 (≈ 30.2 µM) |
| CC(=O)Nc1c(NC(C)(C)C)c2ccccc2oc1=O | > 41.1 |
| CCc1ccc(NC(=O)C2CCCN2C(=O)NC2CCCCC2)cc1 (configuration not stated) | 1.1 (≈ 3.2 µM) |
| COc1ccc(C)cc1NC(=O)C1CCCCN1S(=O)(=O)c1ccccc1 (configuration not stated) | 12 (≈ 30.9 µM) |
| CCC(=O)Nc1ccc(C(=O)CSc2nc(N)cc(N)n2)cc1 | 48.3 (≈ 146 µM) |
| CC(O)c1cccc(N=Cc2ccc3ccccc3c2O)c1 (configuration not stated) | 7.5 (≈ 25.7 µM) |
| Nc1ccc(-c2nc3cc(N)ccc3o2)cc1 | > 33.8 |
| Cc1cc(C)c(C)c(S(=O)(=O)N[C@@H](C)C(=O)OCC(N)=O)c1C | > 51.4 |
| O=S(=O)(NCCc1ccccc1)c1ccc(Br)s1 | 27.5 (≈ 79.4 µM) |
| Nc1ncc(S(=O)(=O)c2ccc(Cl)cc2)c(N)n1 | 31.4 (≈ 110 µM) |
| Nc1nc(NCC(=O)O)nc(N2CCCCCC2)c1[N+](=O)[O-] | 44.1 (≈ 142 µM) |
| O=C(NCCCn1ccnc1)C(=O)NC1CCCCC1 | > 41.8 |

| SMILES | solubility kinetic [µg/mL] |
| --- | --- |
| COC(=O)c1cc(-c2ccccc2)nc2nc(SC)[nH]c(=O)c12 | 9.8 (≈ 29.9 µM) |
| O=C(O)CCC(=O)N1CCN(Cc2ccc3c(c2)OCO3)CC1 | 28.1 (≈ 87.7 µM) |
| CCOc1ccc(CNCCc2ccc3c(c2)OCO3)cc1 | > 44.9 |
| COc1cc(C(=O)NC2CCCc3ccccc32)cc(OC)c1OC (configuration not stated) | 5.9 (≈ 17.3 µM) |
| Cc1ccccc1Nc1c(-c2ccccc2)nc2ncccn12 | 8.1 (≈ 27 µM) |
| COc1ccc(OCC#CCN2CCNCC2)cc1.O=C(O)C(=O)O | 52.4 |
| CC(=O)Nc1ccc(NC(=S)NC(=O)c2ccc(-c3ccccc3)cc2)cc1 | 0.9 (≈ 2.31 µM) |
| CCCCN(C(=O)COC(=O)c1ccccc1)c1c(N)n(CCC)c(=O)[nH]c1=O | > 60.4 |
| CCOc1ccccc1C(=O)NCC(=O)N(C)Cc1ccccc1C | > 51.1 |
| C[C@H](NC(=O)Cc1cccc2ccccc12)C(=O)N1CCOCC1 | > 49 |
| c1ccc2c(c1)CCc1c-2nc2ccccc2c1N1CCOCC1 | 10.5 (≈ 33.2 µM) |
| COc1ccc(C(=O)NCCCNC(=O)c2cc3ccccc3[nH]2)cc1OC | > 57.2 |
| CC(Sc1nncn1C)C(=O)Nc1ccc(S(N)(=O)=O)cc1 (configuration not stated) | > 51.2 |
| Cc1ccc2c(c1)c1ncn(Cc3ccc(F)cc3)c(=O)c1n2C | 0.3 (≈ 0.934 µM) |
| O=C(Cc1cccs1)N1CCN=C1SCc1ccc(F)cc1 | 26 (≈ 77.7 µM) |
| CCN1C(=O)CSC1=Nc1ccc(Cl)c(Cl)c1 | 9.8 (≈ 33.9 µM) |
| COC(=O)[C@H](C)NC(=O)Nc1cccc(Br)c1 | > 45.2 |
| COc1ccc(N2CCOCC2)c(NC(=O)c2cccc3ccccc23)c1 | 6 (≈ 16.6 µM) |
| CC(OC(=O)CCCc1nc2ccccc2s1)C(=O)NC(N)=O (configuration not stated) | > 50.3 |
| COC(=O)c1ccc(COc2ccc(C#N)cc2)o1 | 7 (≈ 27.2 µM) |
| Cc1c(C(=O)OCC(=O)NC(C)c2ccccc2)oc2ccccc12 (configuration not stated) | 4.4 (≈ 13 µM) |
| COc1cccc(/C=C/C(=O)OCC(=O)Nc2ccc(Cl)cn2)c1 | < 0.4 |
| Cc1cc(C(=O)Nc2ccc(Br)cn2)sc1C | 2.2 (≈ 7.07 µM) |
| O=C(c1ccc2ccccc2n1)N1CCN(S(=O)(=O)c2ccc(Cl)cc2)CC1 | 27.4 (≈ 65.9 µM) |

| SMILES | solubility kinetic [µg/mL] |
| --- | --- |
| CC(=O)c1ccc(Nc2ccc([N+](=O)[O-])c3nonc23)cc1 | 4.2 (≈ 14.1 µM) |
| CC(=O)c1c(C)[nH]c(C(=O)Nc2ccc(C)cc2Br)c1C | 0.8 (≈ 2.29 µM) |
| O=C(c1cccc(Cl)c1)N1CCN(Cc2ccccc2)CC1 | 47.1 (≈ 150 µM) |
| O=C(Cc1ccc(F)cc1)Nc1ccccc1N1CCCC1 | 34.1 (≈ 114 µM) |
| COc1ccc(C2SCC(=O)N2c2ccc(C)cc2)cc1 (configuration not stated) | 37.5 (≈ 125 µM) |
| Cc1ccc(NC(=O)CCc2c(C)[nH]c(=O)c(C#N)c2C)cc1 | 12.3 (≈ 39.8 µM) |
| O=C(CN1CCCC1)Nc1cc(C(F)(F)F)ccc1Cl | 18.1 (≈ 59 µM) |
| Cc1ccc2[nH]c(CNC(=O)C3CCCCC3)cc2c1 | 19.6 (≈ 72.5 µM) |
| COCCNCC(=O)N1CCCCCC1.O=C(O)C(=O)O | > 45.7 |
| O=C(Nc1cccnc1)Nc1cccc([N+](=O)[O-])c1 | 10 (≈ 38.7 µM) |
| Cc1cccc(C)c1NC(=O)C1CSC2(C)CCC(=O)N12 (configuration not stated) | > 45.7 |
| Cc1cc(NS(=O)(=O)c2ccc(NC(=O)C3CCCCC3)cc2)no1 | 44.1 (≈ 121 µM) |
| COC(=O)CCCC(=O)N1CCC(CCC(=O)NC2CC2)CC1 | > 48.7 |
| COC(=O)CNC(=O)c1cc(-c2ccncc2)nc2ccc(C)cc12 | > 50.3 |
| CCOc1ccc2oc(C(=O)N3CC(C)OC(C)C3)c(C)c2c1 (configuration not stated) | 41.6 (≈ 131 µM) |
| Cc1ccc(S(=O)(=O)n2cc(C=O)c3ccccc32)cc1 | < 0.6 |
| COc1cccc(Oc2ccc(C(F)(F)F)cc2NC(=O)CN2C(=O)NC3(CCCC3)C2=O)c1 | 2.7 (≈ 5.66 µM) |
| COc1ccccc1C(c1c(O)nc(SC)[nH]c1=O)c1c(O)nc(SC)[nH]c1=O | > 65.2 |
| COc1ccc(CNc2ccc3c(c2)CCC3)cc1Br | 5.6 (≈ 16.9 µM) |
| COc1ccc(C(=O)NCCCNC(=O)c2cnccn2)cc1 | 42.8 (≈ 136 µM) |
| CCOc1ccc2cc(S(=O)(=O)N3CCCCC3)ccc2c1 | < 0.7 |
